Test results from article PMC7074166, “Screening for Small Molecule Modulators of Trypanosoma brucei Hsp70 Chaperone Activity Based upon Alcyonarian Coral-Derived Natural Products” (Marine Drugs, 2020).
Where two headings read alike, the source gives them in different places.

Test system: bloodstream form T. b. brucei parasites
Experiment: Resazurin-based anti-trypanosomal assay on bloodstream form T. b. brucei parasites
Format: cell-based, Trypanosoma brucei brucei
Protocol: Bloodstream form T. b. brucei Lister 927 variant 221 strain parasites were cultured in filter sterilized complete Iscoves Modified Dulbeccos Media (IMDM) based HM1-9 medium (IMDM base powder, […] sodium bicarbonate, 1 mM hypoxanthine, 1 mM sodium pyruvate, 0.16 mM thymidine, 0.05 mM bathocuprone sulphate acid, 10% (v/v) heat inactivated foetal bovine serum, 1.5 mM L-cysteine, 0.2 mM β-mercaptoethanol, pH 7.5) in a humidified chamber at 37 °C with an atmosphere of 5% CO2. Parasite growth was monitored using a Neubauer haemocytometer to count the cell number, after which cells were diluted, according to their density, in the described pre-warmed media.
All compounds of interest were resuspended to stocks of 30 mM in DMSO and stored at −80 °C prior to use in in vitro experiments. For assessment of anti-trypanosomal activity, compounds were added to in vitro cultures of bloodstream form T. b. brucei parasites (1 × 10^5 cells/mL) in 96-well plates at a fixed concentration of 20 μM. After an incubation period of 48 h, the number of parasites surviving drug exposure were determined using a resazurin-based cytotoxicity assay. Resazurin is an oxidation–reduction sensitive dye that is reduced by living cells to resorufin. Resorufin is a fluorophore (Excitation560/Emission590) and thus was quantified in a multi-well fluorescence plate reader. Results are expressed as % parasite viability—the resorufin fluorescence in small molecule-treated wells relative to untreated controls. Assessment of each small molecule was conducted in duplicate, with error bars representing standard deviation (SD). […] The compounds were added to in vitro cultures of bloodstream form T. b. brucei parasites (1 × 10^5 cells/mL) in 96-well plates in a 3-fold dilution series with 100 μM as the highest concentration. After an incubation period of 48 h, the number of parasites surviving drug exposure were determined as previously mentioned. The % parasite viability was determined as previously mentioned. The IC50 (the concentration of compound required to decrease cell viability of T. b. brucei parasites by 50% compared to those grown in the absence of the compound) values for each of the compounds were determined from a dose–response curve by non-linear regression generated using GraphPad Prism® (v. 7.0; San Diego, CA, USA) software. For comparative purposes, pentamidine at a fixed concentration of 1 μM was employed as a drug standard.

[1] = Trypanosoma brucei, Table 1, T. b. brucei parasites cultured in vitro, 48 h, dose-response, read-out: IC50/μM
[2] = Trypanosoma brucei, Table S1, 48 select compounds, T. b. brucei, 48 h, read-out: IC50/

Row | Compound | IC50 [1] | IC50 [2] | IC50 (Trypanosoma brucei, T. b. brucei parasites cultured in vitro, positive control, read-out: IC50 of drug standard) | IC50 (Table 1, T. b. brucei parasites cultured in vitro, 48 h, dose-response, read-out: IC50/μM) | IC50 (Table S1, 48 select compounds, T. b. brucei, 48 h, read-out: IC50/)
1 | CC(C)=CCC/C(C)=C/CC/C(C)=C\Cn1cnc2c1c(=O)[nH]c(=O)n2C [Compound 30, 3-Methyl-7-((2Z,6E)-3,7,11-trimethyldodeca-2,6,10-trien-1-yl)-3,7-dihydro-1H-purine-2,6-dione] | 4.6 µM | 4.62 µM | – | – | –
2 | CC(C)=CCC/C(C)=C/CC/C(C)=C/CC/C(C)=C/Cn1cnc2c(N(C)C)ncnc21 [Compound 14, N,N-dimethyl-9-((2E,6E,10E)-3,7,11,15-tetramethylhexadeca-2,6,10,14-tetraen-1-yl)-9H-purin-6-amine] | 9.2 µM | 9.22 µM | – | – | –
3 | CC(C)=CCC/C(C)=C/CCC(C)=CCn1cnc(N)c2ncnc1-2 [Compound 6, 3-((6E)-3,7,11-Trimethyldodeca-2,6,10-trien-1-yl)-3H-purin-6-amine] | 12.7 µM | 12.7 µM | – | – | –
4 | CC(C)=CCC/C(C)=C/CC/C(C)=C\CNC=O [Compound 74, N-((2Z,6E)-3,7,11-Trimethyldodeca-2,6,10-trien-1-yl)formamide] | 27.3 µM | 27.3 µM | – | – | –
5 | CC(C)=CCC/C(C)=C/CC/C(C)=C/CC/C(C)=C\CNC=O [Compound 76, N-((2Z,6E,10E)-3,7,11,15-Tetramethylhexadeca-2,6,10,14-tetraen-1-yl)formamide] | 11 µM | 11 µM | – | – | –
6 | CC(C)=CCC/C(C)=C/Cn1cnc2c1c(=O)[nH]c(=O)n2C [Compound 29, (E)-7-(3,7-Dimethylocta-2,6-dien-1-yl)-3-methyl-3,7-dihydro-1H-purine-2,6-dione] | 18.9 µM | 18.9 µM | – | – | –
7 | CC(=O)N(C)C/C=C(\C)CC/C=C(\C)CC/C=C(\C)CCC=C(C)C [Compound 88, N-Methyl-N-((2E,6E,10E)-3,7,11,15-tetramethylhexadeca-2,6,10,14-tetraen-1-yl)acetamide] | 38.4 µM | – | – | – | –
8 | CC(C)=CCC/C(C)=C/CC/C(C)=C/CC/C(C)=C/Cn1cnc2c(Cl)ncnc21 [Compound 19, 6-Chloro-9-((2E,6E,10E)-3,7,11,15-tetramethylhexadeca-2,6,10,14-tetraen-1-yl)-9H-purine] | 6.8 µM | 6.79 µM | – | – | –
9 | CC(C)=CCC/C(C)=C/CCC(C)=CCn1cnc2c(N(C)C)ncnc21 [Compound 11, N,N-Dimethyl-9-((6E)-3,7,11-trimethyldodeca-2,6,10-trien-1-yl)-9H-purin-6-amine] | 9.5 µM | 9.48 µM | – | – | –
10 | CC(C)=CCC/C(C)=C/CC/C(C)=C/CC/C(C)=C\Cn1cnc2c1c(=O)[nH]c(=O)n2C [Compound 32, 3-Methyl-7-((2Z,6E,10E)-3,7,11,15-tetramethylhexadeca-2,6,10,14-tetraen-1-yl)-3,7-dihydro-1H-purine-2,6-dione] | 5.9 µM | – | – | – | –
11 | CC(C)=CCC/C(C)=C/CCC(C)=CCN1C(=O)c2ccccc2C1=O [Compound 68, 2-((6E)-3,7,11-Trimethyldodeca-2,6,10-trien-1-yl)isoindoline-1,3-dione] | 32.2 µM | 32.2 µM | – | – | –
12 | CC(C)=CCC/C(C)=C/CC/C(C)=C/CC/C(C)=C\Cn1ccc(=O)[nH]c1=O [Compound 56, 1-((2Z,6E,10E)-3,7,11,15-Tetramethylhexadeca-2,6,10,14-tetraen-1-yl)pyrimidine-2,4(1H,3H)-dione] | 6.2 µM | – | – | – | –
13 | CC(C)=CCC/C(C)=C/CC/C(C)=C/CC/C(C)=C\Cn1cnc2c(N(C)C)ncnc21 [Compound 13, N,N-Dimethyl-9-((2Z,6E,10E)-3,7,11,15-tetramethylhexadeca-2,6,10,14-tetraen-1-yl)-9H-purin-6-amine] | 8.7 µM | 8.69 µM | – | – | –
14 | CC(C)=CCC/C(C)=C/CC/C(C)=C/CC/C(C)=C/Cn1cnc2c1c(=O)[nH]c(=O)n2C [Compound 33, 3-methyl-7-((2E,6E,10E)-3,7,11,15-tetramethylhexadeca-2,6,10,14-tetraen-1-yl)-3,7-dihydro-1H-purine-2,6-dione] | 10.2 µM | 10.2 µM | – | – | –
15 | CC(C)=CCC/C(C)=C/CCC(C)=CCn1cnc2c(N)ncnc21 [Compound 7, 9-((6E)-3,7,11-trimethyldodeca-2,6,10-trien-1-yl)-9H-purin-6-amine] | 47.7 µM | 47.7 µM | – | – | –
16 | CC(C)=CCC/C(C)=C/CC/C(C)=C/CC/C(C)=C/Cn1cnc2c(N)ncnc21 [Compound 8, 9-((2E,6E,10E)-3,7,11,15-Tetramethylhexadeca-2,6,10,14-tetraen-1-yl)-9H-purin-6-amine] | 13.4 µM | 13.4 µM | – | – | –
17 | CC(C)=CCC/C(C)=C/CCC(C)=CCn1ccnc1 [Compound 71, 1-((6E)-3,7,11-Trimethyldodeca-2,6,10-trien-1-yl)-1H-imidazole] | 26.8 µM | 26.8 µM | – | – | –
18 | CC(C)=CCC/C(C)=C/CCC(C)=CCn1cnc2c(Cl)ncnc21 [Compound 17, 6-Chloro-9-((6E)-3,7,11-trimethyldodeca-2,6,10-trien-1-yl)-9H-purine] | 12.9 µM | 12.9 µM | – | – | –
19 | CC(=O)NC/C=C(\C)CC/C=C(\C)CC/C=C(\C)CCC=C(C)C [Compound 85, N-((2E,6E,10E)-3,7,11,15-tetramethylhexadeca-2,6,10,14-tetraen-1-yl)acetamide] | 3.1 µM | 3.14 µM | – | – | –
20 | CC(C)=CCC/C(C)=C/CC/C(C)=C/CC/C(C)=C/CN(C)C=O [Compound 80, N-Methyl-N-((2E,6E,10E)-3,7,11,15-tetramethylhexadeca-2,6,10,14-tetraen-1-yl)formamide] | 41.2 µM | 41.2 µM | – | – | –
21 | N=C(N)c1ccc(OCCCCCOc2ccc(C(=N)N)cc2)cc1 [pentamidine, reference compound] | – | – | 0.0053 µM | – | –
22 | CC(C)=CCC/C(C)=C/CC/C(C)=C/CC/C(C)=C/Cn1ccnc1 [Compound 72, 1-((2E,6E,10E)-3,7,11,15-Tetramethylhexadeca-2,6,10,14-tetraen-1-yl)-1H-imidazole] | 3.4 µM | 3.42 µM | – | – | –
23 | CC(C)=CCC/C(C)=C/CC12NC(=O)N=C1N(C)C(=O)N(C)C2=O (stereo not shown) [Compound 42, (E)-5-(3,7-Dimethylocta-2,6-dien-1-yl)-1,3-dimethyl-5,7-dihydro-1H-purine-2,6,8(3H)-trione] | 10.9 µM | 10.9 µM | – | – | –
24 | CC(C)=CCC/C(C)=C/CC/C(C)=C/CC/C(C)=C/CN1C(=O)c2ccccc2C1=O [Compound 69, 2-((2E,6E,10E)-3,7,11,15-Tetramethylhexadeca-2,6,10,14-tetraen-1-yl)isoindoline-1,3-dione] | 9.2 µM | 9.16 µM | – | – | –
25 | CC(C)=CCC/C(C)=C/CC/C(C)=C/CC/C(C)=C/Cn1cnc2c(cnn2C/C=C(\C)CC/C=C(\C)CC/C=C(\C)CCC=C(C)C)c1=O [Compound 50, 1,5-Bis((2E,6E,10E)-3,7,11,15-tetramethylhexadeca-2,6,10,14-tetraen-1-yl)-1,5-dihydro-4H-pyrazolo[3,4-d]pyrimidin-4-one] | 2.1 µM | 2.07 µM | – | – | –
26 | CC(=O)NC/C=C(/C)CC/C=C(\C)CC/C=C(\C)CCC=C(C)C [Compound 84, N-((2Z,6E,10E)-3,7,11,15-Tetramethylhexadeca-2,6,10,14-tetraen-1-yl)acetamide] | 2.2 µM | 2.17 µM | – | – | –
27 | 6-chloro-7-((2E,6E)-3,7,11-trimethyldodeca-2,6,10-trien-1-yl)-9H-purine [Compound 18] | – | – | – | 9.3 µM | 9.28 µM
28 | CC(C)=CCC/C(C)=C/Cn1cnc2c(N(C)C)ncnc21 [Compound 9, (E)-9-(3,7-Dimethylocta-2,6-dien-1-yl)-N,N-dimethyl-9H-purin-6-amine] | 28.4 µM | 28.4 µM | – | – | –
